Test results: patent US12448383B2, “Compounds and methods for treatment of viral infections” (priority 2022, dated 2025)
Like-named read-outs stand apart in the source and are kept apart here.

What was measured:
[1] = tested on: Respiratory syncytial virus recombinant with luciferase (RSV-Luc5) in HEp-2 cells; test: microbe, parasite or virus in culture; format: cell-based; conditions: human respiratory syncytial virus
[2] = tested on: SARS Coronavirus 2 recombinant with NanoLuc (SARS-CoV2-NLuc) in A549-hACE2 cells; test: organism not typed; format: cell-based
[3] = tested on: Respiratory syncytial virus recombinant with luciferase (RSV-Luc5) in Normal Human Bronchial Epithelial (NHBE) cells; test: microbe, parasite or virus in culture; format: cell-based
[4] = CC50 MT4 cytotoxicity (Cell-Titer Glo); format: cell-based; conditions: human
Procedure, shortened: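 CC50 values are the concentrations cutting viability by 50%, fitted by non-linear regression against untreated (100%) and 2 μM puromycin (0%) controls. Cell-Titer Glo luminescence measured after 4-5 days at 37° C exposure of uninfected MT-4 and HEp-2 cells to 3-fold dilutions spanning 15 nM to 100,000 nM.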

GI S9 stability = format: in vitro ADME
Experimental: Example G: GI S9 Stability
Duplicate aliquots of test compound or positive control substrate (GS-7340) were added to S9 stock diluted with 100 mM phosphate buffered saline, pH 7.4, to obtain a protein concentration of 1.0 mg/mL. The S9 metabolic reactions were initiated by the addition of the substrates to the S9 reaction mixture to a final concentration of 2 μM. At 0, 10, 20, 30, 60 and 120 min, […] aliquots of the reaction mixture were transferred to plates containing […] of IS/Q solution. After quenching, the plates were centrifuged at 3000 g for 30 minutes, and 150 μL aliquots of each supernatant were diluted with 150 μL water. Aliquots ([…]) of the diluted supernatant were analyzed on a Thermo Q-Exactive mass spectrometer as described below. GI S9 Stability—No phenylmethylsulfonyl fluoride (PMSF): Similar to the procedure described above, test compounds were incubated at 2 μM with 1 mg/mL PMSF-free Intestinal S9 fractions. Samples are removed at 6 time points over the course of a 120 min experiment and the parent compound disappreance and reference compound A formation is determined by mass spectrometry.
Example K: Liquid Chromatography/Mass Spectroscopy Methods for S9 and Plasma Stability
Quantification of test compounds, Reference Compound A (S9 stability assay nucleoside metabolite), and controls was performed by analyte/internal standard peak area ratio (PAR) values measured on a Thermo Q-Exactive mass spectrometer coupled to a Dionex UltiMate 3000 HPLC with a Leap Technologies HTC PAL autosampler. The column used for analysis of test compounds and Reference Compound A was a Waters Acquity BEH C18 ([…] particle size, 2.1′50 mm). The column used for control (GS-7340) was a Thermo Hypersil GOLD ([…] particle size, 2.1′50 mm). Mobile phase A consisted of 0.1% (v/v) formic acid in water. Mobile phase B consisted of 0.1% (v/v) formic acid in acetonitrile. Elution of analytes was achieved by a series of linear gradients of acetonitrile in water containing 0.1°(v/v) formic acid. The mass spectrometer was calibrated on a weekly basis and mass tolerance of 5 ppm was used.

[5] = GI S9 stability - no PMSF; format: in vitro ADME; conditions: pH 7.4; human intestinal S9, PMSF-free; read-out: GIS9-HUMAN-NoPMSF T1/2
Procedure, shortened: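 Stability was assessed by Q-Exactive LC-MS peak area ratios against internal standard, tracking loss of parent and appearance of nucleoside metabolite Reference Compound A. Incubations used 2 μM compound in 1 mg/mL intestinal S9 without PMSF (PBS, pH 7.4), with six samples taken over 120 min.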

Plasma stability = format: in vitro ADME; set-up: unit not given here; conditions: 37° C., 2 μM substrate
Procedure, shortened: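 LC-MS (Q-Exactive, 5 ppm tolerance, 0.1% formic acid water/acetonitrile gradient) quantified compound in quenched aliquots. Aliquots were taken at 0.05, 0.5, 1, 2, 3 and 4 hr and quenched with internal-standard solution, and supernatants were diluted with water after centrifugation.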

[6] = tested on: Caco-2 cells (clone C2BBe1); test: CACO-2 permeability; format: in vitro ADME; set-up: unit not given here; conditions: for DM Caco2 A to B: apical to basolateral, donor pH 6.5, receiver pH 7.4; for DM Caco2 B to A: basolateral to apical
Procedure, shortened: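 A-to-B and B-to-A flux measured by LC-MS/MS from receiver samples taken at 1 and 2 h, with donor sampled at 0 and 2 h and recovery checked. Buffers: pH 6.5 HBSS with 200 μM BNPP on the donor side, pH 7.4 with BSA on the receiver side. Monolayers were 21-day cultures, TEER-verified, in duplicate wells.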

[7] = HEp-2, 72 h, read-out: RSV Hep2 EC50

| Compound | EC50 [1, 7] [nM] | EC50 ([2]; 48 h, read-out: SARS-CoV2 EC50) [nM] | EC50 ([3]; 72 h, read-out: RSV NHBE EC50) [nM] | CC50 [4] [nM] | half-life at 2 µM (GI S9 stability; human, s9, pH 7.4) [h] | half-life at 2 µM [5] [h] | STA Human Plasma 37 (Plasma stability) | DM Caco2 A to B [6] | DM Caco2 B to A [6] | CC50 ([4]; uninfected MT-4 cells, 4-5 days, read-out: MT4 CC50) [nM] | half-life at 2 µM (GI S9 stability; pH 7.4, human intestinal S9, read-out: GIS9 Human T1/2) [h] | EC50 ([1]; HEp-2, read-out: EC50 RSVFluc-Hep2 384 V2) [nM] | EC50 ([2]; A549, read-out: EC50 SARS CoV2 NanoLuc A549 384) [nM] | EC50 ([3]; read-out: EC50 RSVFluc-NHBE 384 V2) [nM] | logD (physchem) |
| --- | --- | --- | --- | --- | --- | --- | --- | --- | --- | --- | --- | --- | --- | --- | --- |
| CC(C)COC(=O)OC[C@H]1O[C@@](C#N)(c2ccc3c(N)ncnn23)[C@H](O)[C@@H]1O [Compound 1, ((2R,3S,4R,5R)-S-(4-aminopyrrolo[2,1-f][1,2,4]triazin-7-yl)-5-cyano-3,4-dihydroxytetrahydrofuran-2-yl)methyl isobutyl carbonate] | 422 | 1870 | 2180 | > 46400 | 1.88 | 0.0242 | 28.434 | 0.275 | 3.853 | – | – | – | – | – | – |
| CC(C)COC(=O)Nc1ncnn2c([C@]3(C#N)O[C@H](COC(=O)OCC(C)C)[C@@H](O)[C@H]3O)ccc12 [Compound 2, isobutyl (7-((2R,3R,4S,5R)-2-cyano-3,4-dihydroxy-5-(((isobutoxycarbonyl)oxy)methyl)tetrahydrofuran-2-yl)pyrrolo[2,1-f][1,2,4]triazin-4-yl)carbamate] | 6610 | > 50000 | 9600 | > 50000 | 2.61 | – | 344.3 | 1.17 | 8.69 | – | – | – | – | – | – |
| CC(C)(C)COC(=O)OC[C@H]1O[C@@](C#N)(c2ccc3c(N)ncnn23)[C@H](O)[C@@H]1O [Compound 3, ((2R,3S,4R,5R)-5-(4-aminopyrrolo[2,1-f][1,2,4]triazin-7-yl)-5-cyano-3,4-dihydroxytetrahydrofuran-2-yl)methyl neopentyl carbonate] | 545 | 796 | 1600 | > 50000 | 1.35 | 0.0133 | 82.745 | 1.23 | 9.8 | – | – | – | – | – | – |
| COC(=O)OC[C@H]1O[C@@](C#N)(c2ccc3c(N)ncnn23)[C@H](O)[C@@H]1O [Compound 5, ((2R,3S,4R,5R)-5-(4-aminopyrrolo[2,1-f][1,2,4]triazine-7-yl)-5-cyano-3,4-dihydroxytetrahydrofuran-2-yl)methyl methyl carbonate] | 2900 | 13200 | 3550 | > 50000 | ≥ 13.2 | 1.25 | 1388.9 | – | – | – | – | – | – | – | – |
| N#C[C@@]1(c2ccc3c(N)ncnn23)O[C@H](COC(=O)Oc2ccccc2)[C@@H](O)[C@H]1O [Compound 7, ((2R,3S,4R,5R)-5-(4-aminopyrrolo[2,1-f][1,2,4]triazin-7-yl)-5-cyano-3,4-dihydroxytetrahydrofuran-2-yl)methyl phenyl carbonate] | 416 | 915 | 1340 | 47400 | 0.9 | – | 6.563 | 0.52 | 8.98 | – | – | – | – | – | – |
| CCCOC(=O)OC[C@H]1O[C@@](C#N)(c2ccc3c(N)ncnn23)[C@H](O)[C@@H]1O [Compound 8, ((2R,3S,4R,5R)-5-(4-aminopyrrolo[2,1-f][1,2,4]triazin-7-yl)-5-cyano-3,4-dihydroxytetrahydrofuran-2-yl)methyl propyl carbonate] | 301 | 1010 | 1840 | – | – | 0.00967 | 11.698 | – | – | > 50000 | 2.66 | – | – | – | – |
| N#C[C@@]1(c2ccc3c(N)ncnn23)O[C@H](COC(=O)OC2CC2)[C@@H](O)[C@H]1O [Compound 9, ((2R,3S,4R,5R)-5-(4-aminopyrrolo[2,1-f][1,2,4]triazin-7-yl)-5-cyano-3,4-dihydroxytetrahydrofuran-2-yl)methyl cyclopropyl carbonate] | 784 | 2280 | 1810 | > 50000 | 5.19 | – | 156.68 | 0.39 | 5.17 | – | – | – | – | – | – |
| COCCOC(=O)OC[C@H]1O[C@@](C#N)(c2ccc3c(N)ncnn23)[C@H](O)[C@@H]1O [Compound 10, ((2R,3S,4R,5R)-5-(4-aminopyrrolo[2,1-f][1,2,4]triazine-7-yl)-5-cyano-3,4-dihydroxytetrahydrofuran-2-yl)methyl (2-methoxyethyl) carbonate] | 3960 | 14100 | 2990 | > 50000 | ≥ 13.2 | – | 43.569 | 0.08 | 1.39 | – | – | – | – | – | – |
| N#C[C@@]1(c2ccc3c(N)ncnn23)O[C@H](COC(=O)OC2CCCC2)[C@@H](O)[C@H]1O [Compound 12, ((2R,3S,4R,5R)-5-(4-aminopyrrolo[2,1-f][1,2,4]triazin-7-yl)-5-cyano-3,4-dihydroxytetrahydrofuran-2-yl)methyl cyclopentyl carbonate] | 659 | 2350 | 1580 | > 50000 | 0.966 | – | 35.623 | 1.15 | 13.73 | – | – | – | – | – | – |
| COC(C)(C)COC(=O)OC[C@H]1O[C@@](C#N)(c2ccc3c(N)ncnn23)[C@H](O)[C@@H]1O [Compound 54, ((2R,3S,4R,5R)-5-(4-aminopyrrolo[2,1-f][1,2,4]triazin-7-yl)-5-cyano-3,4-dihydroxytetrahydrofuran-2-yl)methyl (2-methoxy-2-methylpropyl) carbonate] | 587 | 5690 | 1020 | > 50000 | 11.5 | 0.0721 | 108 | 0.25 | 3.8 | – | – | – | – | – | – |
| COc1ccc(OC(=O)OC[C@H]2O[C@@](C#N)(c3ccc4c(N)ncnn34)[C@H](O)[C@@H]2O)cc1 [Compound 111, ((2R,3S,4R,5R)-5-(4-aminopyrrolo[2,1-f][1,2,4]triazin-7-yl)-5-cyano-3,4-dihydroxytetrahydrofuran-2-yl)methyl (4-methoxyphenyl) carbonate] | – | – | – | > 50000 | 0.885 | 0.0655 | 35 | 0.625 | 11.22 | – | – | 220 | 3420 | 1300 | 1.5 |
